The record followed here is ChEMBL document CHEMBL2331290, “4-Hydroxypyridazin-3(2H)-one derivatives as novel D-amino acid oxidase inhibitors” (J Med Chem, 2013).

pIC50: −log10 of the molar value.

Data set [1] has as its target T1, D-amino-acid oxidase (Homo sapiens, UniProt P14920). As to the kind of experiment: Inhibition of human recombinant DAAO after 30 mins by plate reader analysis.
For the next data set, the system named is HEK293. Kind of data set: Cytotoxicity against HEK293 cells overexpressing human full length DAAO by Alamar Blue assay. The data set is classed as cell-based. In general terms: Resazurin is reduced to fluorescent resorufin, in cell work by metabolically active cells.
Data set [2] deals with D-amino-acid oxidase (Rattus norvegicus, UniProt O35078).
Sequence of D-amino-acid oxidase (Rattus norvegicus, UniProt O35078) (O35078 whole entry): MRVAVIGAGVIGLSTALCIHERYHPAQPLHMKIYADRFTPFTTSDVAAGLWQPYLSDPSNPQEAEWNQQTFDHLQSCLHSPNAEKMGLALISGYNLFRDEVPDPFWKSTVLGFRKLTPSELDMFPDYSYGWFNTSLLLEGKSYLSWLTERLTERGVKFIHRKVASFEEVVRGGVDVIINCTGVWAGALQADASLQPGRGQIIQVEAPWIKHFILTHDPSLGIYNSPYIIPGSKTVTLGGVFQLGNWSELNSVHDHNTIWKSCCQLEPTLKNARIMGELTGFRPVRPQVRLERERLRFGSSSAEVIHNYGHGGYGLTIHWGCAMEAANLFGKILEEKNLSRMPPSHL
Description: Inhibition of rat full length DAAO overexpressed in HEK293 cells after 30 mins by plate reader analysis
The target in data set [3] is D-amino-acid oxidase (Mus musculus, UniProt P18894).
Sequence of D-amino-acid oxidase (Mus musculus, UniProt P18894) (P18894 whole entry): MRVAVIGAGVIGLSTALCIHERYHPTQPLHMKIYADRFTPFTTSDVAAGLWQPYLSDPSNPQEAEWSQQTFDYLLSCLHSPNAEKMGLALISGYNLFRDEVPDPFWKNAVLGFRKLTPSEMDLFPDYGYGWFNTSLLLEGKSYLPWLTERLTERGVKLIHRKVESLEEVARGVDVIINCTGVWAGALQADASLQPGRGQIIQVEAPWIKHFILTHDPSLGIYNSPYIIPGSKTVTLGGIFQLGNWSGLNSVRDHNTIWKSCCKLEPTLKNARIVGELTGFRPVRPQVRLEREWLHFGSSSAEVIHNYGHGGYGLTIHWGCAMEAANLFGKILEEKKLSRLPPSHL
Description: Inhibition of mouse full length DAAO overexpressed in HEK293 cells after 30 mins by plate reader analysis
For data set [4], the target named is T1, D-amino-acid oxidase.
Description: Inhibition of human full length DAAO overexpressed in HEK293 cells after 30 mins by plate reader analysis
The target in data set [5] is T1, D-amino-acid oxidase. The source holds these as a separate data set.
Description: Inhibition of DAAO (unknown origin) by cell based assay
Data set [6] can be described thus: Effective permeability of the compound at pH 6.5 after 2 hrs by PAMPA. The data set is classed as ADME. To be noted: read-out: Peff. A general note: The PAMPA barrier holds no transporters, so it reflects passive diffusion.
Data set [7] in a line: Drug uptake in ddY mouse brain at 30 mg/kg, po after 30 mins by LC-MS/MS analysis. The class given is ADME, organism-based. Also noted: dose 30 mg/kg, route oral. The note with it: read-out: Drug uptake.
A short description of data set [8]: Plasma concentration in ddY mouse at 30 mg/kg, po after 30 mins by LC-MS/MS analysis. The class given is ADME, organism-based. Also noted: dose 30 mg/kg, route oral.

T1 sequence (P14920 whole entry): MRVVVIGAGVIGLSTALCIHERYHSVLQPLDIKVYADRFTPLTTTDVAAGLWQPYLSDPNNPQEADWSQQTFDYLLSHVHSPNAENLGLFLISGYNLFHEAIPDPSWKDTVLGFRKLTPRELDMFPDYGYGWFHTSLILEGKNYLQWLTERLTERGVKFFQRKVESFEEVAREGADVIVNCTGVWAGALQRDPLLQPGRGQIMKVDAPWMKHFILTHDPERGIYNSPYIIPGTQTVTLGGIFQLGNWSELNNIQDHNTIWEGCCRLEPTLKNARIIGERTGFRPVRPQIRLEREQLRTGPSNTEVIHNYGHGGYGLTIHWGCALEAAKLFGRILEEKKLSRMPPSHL

A word on the pIC50: it is the negative decadic logarithm of the IC50, by convention in mol/L. Consider `Oc1cccnc1O`, for which the pIC50 at D-amino-acid oxidase [1] was 5.94.
As for `Cc1c[nH]c(=O)c(O)c1`, the Activity result in the data set on HEK293 is “Toxic”. Also, the pIC50 on D-amino-acid oxidase [1] is 6.85.
As for `COc1cc(CCc2cc(O)c(=O)[nH]n2)cc(OC)c1`, the values for the pIC50 on D-amino-acid oxidase [2] and against D-amino-acid oxidase [3] were 7.72 and 7.92, respectively.
Taken in the same sequence, the figures for `O=c1[nH]nc(CCc2ccccc2)cc1O` were 8.34 and 8.48.
Taken in the same sequence, the figures for `O=c1cc(COc2ccccc2)[nH]nc1O` were 8.19 and 8.34.
Taken in the same sequence, the figures for `O=c1[nH]nc(CCc2ccc(F)cc2)cc1O` were 8.66 and 8.60.
Turning to `O=c1[nH]nc(CCc2cccc(F)c2)cc1O`, the pIC50 on D-amino-acid oxidase [2] is 8.59; against D-amino-acid oxidase [3] it was 8.72.
On the same counts, the results for `O=c1[nH]nc(CCC2CCCCC2)cc1O` are 8.09 and 8.49.
On to `O=c1[nH]nc(/C=C/c2ccc(Cl)cc2)cc1O`, for which the pIC50 is 6.24 against D-amino-acid oxidase [4], 6.33 against D-amino-acid oxidase [2], 6.92 on D-amino-acid oxidase [1] and 6.62 at D-amino-acid oxidase [3].
For the molecule `COc1ccc(CCc2cc(O)c(=O)[nH]n2)cc1`, the results for the pIC50 against D-amino-acid oxidase [2] and at D-amino-acid oxidase [3] were 8.42 and 8.44, respectively.
On the same counts, the results for `O=c1[nH]nc(CCc2ccc(Cl)cc2)cc1O` are 8.62 and 8.72.
For the molecule `COc1cccc(CCc2cc(O)c(=O)[nH]n2)c1`, the pIC50 was 8.25 on D-amino-acid oxidase [2] and 8.36 against D-amino-acid oxidase [3].
For the molecule `CC(c1ccccc1)c1cc(O)c(=O)[nH]n1` (stereo not drawn), the figures for the pIC50 at D-amino-acid oxidase [2] and against D-amino-acid oxidase [3] were 8.51 and 8.55, respectively.
On the same counts, the results for `O=c1[nH]nc(CCc2ccccc2F)cc1O` are 8.31 and 8.44.
As for `O=C(O)c1cc2sccc2[nH]1`, the results for the pIC50 against D-amino-acid oxidase [5] and on D-amino-acid oxidase [1] were 6.83 and 8.85, respectively. The Papp at 2 h in [6] is 0.8 ×10⁻⁶ cm/s.
As for `O=c1[nH]nc(CCc2ccc(C(F)(F)F)cc2)cc1O` [LUVADAXISTAT], the pIC50 was 8.30 against D-amino-acid oxidase [2] and 8.23 at D-amino-acid oxidase [3].
As for `CC(C)(C)CCc1cc(O)c(=O)[nH]n1`, the pIC50 at D-amino-acid oxidase [4] is below 6.00; on D-amino-acid oxidase [2], below 6.00; on D-amino-acid oxidase [1], 6.17; against D-amino-acid oxidase [3] it was below 6.00.
As to `O=c1[nH]cc(CCc2ccccc2)cc1O`, in the data set on HEK293, the Activity result is listed as “Toxic”. Further, the Papp at 2 h in [6] is above 30 ×10⁻⁶ cm/s.
For the molecule `O=c1[nH]cc(Cl)cc1O`, the pIC50 against D-amino-acid oxidase [5] is 6.03; at D-amino-acid oxidase [1] it was 7.33. The Papp at 2 h in [6] came to 6.4 ×10⁻⁶ cm/s.
In the case of `O=c1[nH]nc(C2CCCCC2)cc1O`, the pIC50 at D-amino-acid oxidase [4] was below 6.00; against D-amino-acid oxidase [2], below 6.00; on D-amino-acid oxidase [1] it was 6.52; at D-amino-acid oxidase [3] it was below 6.00.
For the molecule `O=c1[nH]nc(CCc2cc(C(F)(F)F)cc(C(F)(F)F)c2)cc1O`, the pIC50 against D-amino-acid oxidase [2] is 5.72; on D-amino-acid oxidase [3], 6.31.
As for `O=c1[nH]nc(CCc2ccccc2C(F)(F)F)cc1O`, the pIC50 was 7.39 at D-amino-acid oxidase [2] and 8.15 at D-amino-acid oxidase [3].
For the molecule `O=c1[nH]nc(CCCc2ccccc2)cc1O`, the pIC50 at D-amino-acid oxidase [2] is 5.91; against D-amino-acid oxidase [3], 6.37.
Regarding `O=c1[nH]c2ccccc2cc1O`, in [6], the Papp at 2 h was 18.2 ×10⁻⁶ cm/s.
As to `O=c1[nH]nc(CCc2cc(F)cc(F)c2)cc1O`, the concentration at 0.5 h in data set [7] was 460 ng/mL; in data set [8], 6540 ng/mL. Further, the values for the pIC50 against D-amino-acid oxidase [2] and on D-amino-acid oxidase [3] were 7.80 and 8.36, respectively.
